# How the values were obtained:
# [1] = test system: dLight1.3b-expressing HEK293T sniffer cells on primary DArgic neurons; experiment: DA release imaging from cultured DArgic neurons with dLight1.3b sniffer cells; type: cell-based, mouse; conditions: 4-AP 250 µM in perfusion
# Protocol: Primary DA (DA) neurons were grown on a layer of cortical astrocytes. The astrocytes were first prepared from P0-P2 C57BL6 mice, grown in T75 flask and then seeded on collagen/poly-L-lysine coated 15 mm glass coverslips at a concentration of 100,000 cells/ml. The cells were allowed to grow until close to confluence before the seeding of neurons. Primary DArgic neurons were prepared and cultured from P0-P2 mouse pups using a previously described protocol. Briefly, the ventral midbrain of P0-P2 pups was dissected from DAT^IREScre x Ai9 mice in which DA neurons expressed the red fluorescent protein tdTomato. These were produced by crossing DAT^IREScre mice (catalog #006660, Jackson Labs[31]) to Ai9/tdTomato mice (catalog #007905, Jackson Labs[32]). Both of these lines were on a C57BL/6 J background. Midbrain cells were seeded at a concentration of 240,000 cells/ml on top of the astrocyte monolayer and allowed to grow for 10 days (10 DIV). Two days before imaging, expression of dLight1.3b was induced in stable HEK cells with doxycycline. One day prior to imaging, HEK cells were lifted using trypsin, and 150,000 HEK cells were seeded on top of 10 DIV-cultured neurons in doxycycline-supplemented neuronal medium. Imaging was performed on a confocal microscope (Nikon A1 HD25) using a 40X dry objective and a 488 nm laser to excite dLight1.3b and a 546 nm laser to activate tdTomato and identify DA neurons. On the day of imaging, physiological saline containing drugs at the specified concentration ([…], Sigma; SCH23390, Sigma; DETQ, Enamine) were applied on the culture using a computer-controlled perfusion system (Automate system). A field containing one or more DA neurons was selected based on the tdTomato signal. […]
# Event detection was performed using a thresholding algorithm adapted from[80]. In brief, the recorded field of view was divided into square ROIs of 55 um x 55 um size. […] A rolling standard deviation was calculated with the same window size. Events were defined as timepoints at which the fluorescence intensity reading exceeds the averaged intensity by 5 standard deviations.
# human DRD1 (hmDRD1) = conditions: human clones; ref Hao et al., 2019; Wang et al., 2018; cited from earlier work
# msDRD1 = target: T1, msDRD1 (Mus musculus, UniProt Q61616); conditions: rodent (rat or mouse); ref Hao et al., 2019; Wang et al., 2018; cited from earlier work
# T1 construct: expressed in transfected cells; host or cells: HEK293T
# dLight1.3b = dLight1.3b (Homo sapiens, UniProt P21728); experiment: DA titrations on dLight1.3b-expressing HEK293 cells (confocal fluorescence imaging); type: cell-based; conditions: D1-PAM 5 μM
# Protocol: Cells were transfected at 50–60% confluency in glass-bottomed dishes (either individually or in 24-well plates) using the Effectene transfection kit (Qiagen) according to manufacturer instructions, and imaged 24–48 h after transfection. The Flp-In™ T-REx™ 293 cells (Thermo Fisher) with a stably integrated dLight1.3b cassette[48] were cultured as follows: the cells were cultured using HEK293T cell medium with the addition of Blasticidin (15 µg/ml) and Hygromycin B (200 µg/ml). To induce the expression of dLight1.3b, doxycycline (500 ng/ml) was added to the culture medium for 24–48 hours. Before imaging, cells were rinsed with 1 mL of Hank’s Balanced Salt Solution (HBSS, Life Technologies) supplemented with Ca^2+ (2 mM) and Mg^2+ (1 mM), and imaged at room temperature with a final HBSS volume of either 100 µL for each individual 1.5 cm glass bottom dish, or 500 µL for 24-well plates. Time-lapse imaging was performed on an inverted Zeiss LSM 800 confocal microscope using a 488 nm laser and a 40X oil-based objective. During imaging, ligands were added in bolus on the cells using a micropipette to reach the final specified concentrations of ligand over the cells. For quantification, except otherwise noted, regions of interest (ROI) were selected manually using the threshold function of Fiji to isolate the cell membrane. Sensor response (∆F/F) was calculated as the following: (F(t)-F_base)/F_base with F(t) being the ROI fluorescence value at each time point (t), and F_base being the mean fluorescence of the 10-time points immediately prior to ligand addition.
# DRD1-MSNs = experiment: Whole-cell electrophysiology of DRD1-MSNs in dorsal striatum brain slices; type: cell-based, mouse
# Protocol: For experiments involving SKF38393 application, to identify DRD1 receptor (DRD1)-positive neurons in the dorsal striatum, DRD1:cre mice injected with AAV5-hSyn-dlox-ChrimsonR-tdTomato were used. 3–4 weeks after viral injection, mice were anesthetized with 5% isoflurane and euthanized by decapitation. […] Slices were kept at 34 °C for 10–20 minutes and then at room temperature until recordings. In the recording chamber, slices were superfused with ACSF at 30–32 °C. Patch pipettes (3–7 MΩ) were pulled from borosilicate glass pipettes (GC150T-10, Harvard Apparatus). The internal solution contained (in mM): potassium gluconate 130, MgCl2 4, MgATP 3.4, Na3GTP 0.1, creatine phosphate 10, HEPES 5, and EGTA 1.1. The membrane potential was measured using EPC 10 USB Patch Clamp Amplifiers (HEKA). The access resistance was monitored by a hyperpolarizing step of −10 mV. The identification of DRD1-positive neurons was performed by the presence of red fluorescence protein and photo-evoked current or potential (@2 Hz, 10 ms duration, 2 pulses or 500 ms continuous pulse. light source: Colibri 7, Zeiss; 630 nm wavelength, 1 mW). To assess the excitability of neurons, positive currents were injected (0–500 pA) and the number of action potentials was counted at each current step. To measure input resistance, negative currents were injected (−200 to 0 pA, every 50 pA, 500 ms), as previously described. The resting membrane potential was measured at 0 pA current input.
# Action potentials were evoked by current injection (50–500 pA, 500 ms) in current-clamped neurons. Neurons were recorded from in the presence of picrotoxin (100 µM), CGP55485 (0.3 µM), DNQX (10 µM), and MK801 (10 µM) to block GABAA, GABAB, AMPA and NMDA receptors, respectively. DA (10 µM) was applied to brain slices in the presence of cocaine (5 µM) to prevent reuptake.
# T1 sequence (Q61616 whole entry): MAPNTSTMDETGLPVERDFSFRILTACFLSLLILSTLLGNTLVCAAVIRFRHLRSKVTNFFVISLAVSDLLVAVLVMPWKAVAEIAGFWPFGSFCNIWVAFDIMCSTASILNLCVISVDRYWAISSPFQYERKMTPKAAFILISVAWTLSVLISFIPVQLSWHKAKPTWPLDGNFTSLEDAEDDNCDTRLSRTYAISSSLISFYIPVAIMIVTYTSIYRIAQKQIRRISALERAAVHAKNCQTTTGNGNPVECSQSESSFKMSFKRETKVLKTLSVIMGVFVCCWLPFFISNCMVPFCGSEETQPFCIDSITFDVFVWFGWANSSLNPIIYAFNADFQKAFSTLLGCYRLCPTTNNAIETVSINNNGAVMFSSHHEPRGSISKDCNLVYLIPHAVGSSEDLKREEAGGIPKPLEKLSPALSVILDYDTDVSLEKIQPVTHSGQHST
compound,measurement,setting,value
"Nc1ccncc1 [4-AP, 4-aminopyridine]",DA release events,[1],larger localized DA release events started to become noticeable
"C[C@H]1c2cccc(CCC(C)(C)O)c2C[C@H](CO)N1C(=O)Cc1c(Cl)cccc1Cl [LY315207, 2-(2,6-Dichlorophenyl)-1-((1S,3R)-5-(3-hydroxy-3-methylbutyl)-3-(hydroxymethyl)-1-methyl-3,4-dihydroisoquinolin-2(1H)-yl)ethan-1-one]",maximal potentiation of dopamine,human DRD1 (hmDRD1),75-85%
same,partial potentiation of dopamine (% of max potentiation),msDRD1,45-53%
Cn1c2ccccc2c(=O)c2c(=O)n(-c3ccccc3)c(C3CCCCC3)nc21 [MLS1082],effect on the DA sensitivity of dLight1.3b,dLight1.3b,did not have a noticeable effect
CC(C)(C)C1CCc2c(sc(NC(=O)c3ccncc3)c2C(N)=O)C1 (stereo not shown) [MLS6585],effect on the DA sensitivity of dLight1.3b,dLight1.3b,did not have a noticeable effect
Oc1cc2c(cc1O)C(c1ccccc1)CNCC2 (stereo not shown) [SKF38393],firing rate during current-injection of DRD1-MSNs,DRD1-MSNs; SKF38393 1 µM superfusion,significant increase
"NCCc1ccc(O)c(O)c1 [DA, Dopamine]",number of action potentials evoked by current injection,DRD1-MSNs; DA 10 µM bath application vs control,increased the number of action potentials

# From publication PMC11219860, “A chemogenetic approach for dopamine imaging with tunable sensitivity” (Nature Communications, 2024)
